In PubChem BioAssay AID200 (DTP/NCI, 2004):
Several values for one entry are separate records, joined by “and”; a condition that tells them apart may be missing. Identical values can stand only once. Toxic doses and inconclusive results are not listed. Where a SMILES comes first, the peptide text is derived from it. The star is where a group is joined. Cbz = O=C(OCc1ccccc1)*

Tested on: B6C3F1 mice, B16 melanoma ip, median survival T/C
Test: NCI In Vivo Anticancer Drug Screen. Data for tumor model B16 Melanoma (intraperitoneal) in B6C3F1 mice
Details: endpoint: median survival time, higher = longer survival
Method in brief: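 Transplantable tumor in mice; treated vs vehicle control groups; survival or tumor size measured; value = T/C ratio.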

[1] = dose: 25.0 mg/kg/injection, schedule: Q01DX009 (ip), vehicle: saline
[2] = dose: 50.0 mg/kg/injection, schedule: Q01DX009 (ip), vehicle: saline
[3] = dose: 100.0 mg/kg/injection, schedule: Q01DX009 (ip), vehicle: saline
[4] = dose: 200.0 mg/kg/injection, schedule: Q01DX009 (ip), vehicle: saline
[5] = dose: 12.5 mg/kg/injection, schedule: Q01DX009 (ip), vehicle: saline with Tween-80
[6] = dose: 25.0 mg/kg/injection, schedule: Q01DX009 (ip), vehicle: saline with Tween-80
[7] = dose: 50.0 mg/kg/injection, schedule: Q01DX009 (ip), vehicle: saline with Tween-80

Q: For `CCCCNC(C)C1(O)Cc2c(O)c3c(c(O)c2C(OC2CC(N)C(O)C(C)O2)C1)C(=O)c1c(OC)cccc1C3=O` (stereo not drawn), which T/C (dose: 5.0 mg/kg/injection, schedule: Q01DX009 (ip), vehicle: saline) is on record?
A: 120 % of control

Q: And the T/C (dose: 10.0 mg/kg/injection, schedule: Q01DX009 (ip), vehicle: saline)?
A: 174 % of control and 193 % of control

Q: What about the T/C (dose: 20.0 mg/kg/injection, schedule: Q01DX009 (ip), vehicle: saline) of the same compound?
A: 160 % of control and 222 % of control

Q: And the T/C (dose: 40.0 mg/kg/injection, schedule: Q01DX009 (ip), vehicle: saline)?
A: 190 % of control and 333 % of control

Q: And the T/C (dose: 80.0 mg/kg/injection, schedule: Q01DX009 (ip), vehicle: saline)?
A: 232 % of control and 333 % of control

Q: For `CN(CN1C(=O)CCC1=O)CN1C(=O)CCC1=O`, which T/C [1] is on record?
A: 98 % of control

Q: What about the T/C [2] of the same compound?
A: 101 % of control

Q: What about the T/C [3] of the same compound?
A: 105 % of control

Q: What about the T/C [4] of the same compound?
A: 115 % of control

Q: With `O=C(O)C1CC(O)CN1` (stereo not drawn) as the compound, how does the T/C [2] read?
A: 101 % of control

Q: And the T/C [3]?
A: 101 % of control

Q: What about the T/C [4] of the same compound?
A: 96 % of control

Q: What about the T/C (dose: 400.0 mg/kg/injection, schedule: Q01DX009 (ip), vehicle: saline) of the same compound?
A: 106 % of control

Q: And the T/C (dose: 800.0 mg/kg/injection, schedule: Q01DX009 (ip), vehicle: saline)?
A: 108 % of control

Q: Which results are given for `O=NN(CCF)C(=O)NC1C(O)CCCC1O` (stereo not drawn)?
A: T/C (dose: 7.5 mg/kg/injection, schedule: Q01DX001 (ip), vehicle: saline): 198 % of control; T/C (dose: 15.0 mg/kg/injection, schedule: Q01DX001 (ip), vehicle: saline): 222 % of control; T/C (dose: 30.0 mg/kg/injection, schedule: Q01DX001 (ip), vehicle: saline): 350 % of control; T/C (dose: 60.0 mg/kg/injection, schedule: Q01DX001 (ip), vehicle: saline): 350 % of control

Q: Which T/C [5] does the source give for `CCOc1ccc(NC(=O)C(C(C)N2CCCCC2)N2CCCCC2)cc1` (stereo not drawn) here?
A: 102 % of control

Q: What about the T/C [6] of the same compound?
A: 94 % of control

Q: And the T/C [7]?
A: 93 % of control

Q: Which T/C [1] does the source give for `CN1C2CCC1C(Br)C(=O)C2` (stereo not drawn) here?
A: 105 % of control

Q: What about the T/C [2] of the same compound?
A: 95 % of control

Q: What about the T/C [3] of the same compound?
A: 93 % of control

Q: And the T/C [4]?
A: 93 % of control

Q: With `COC1C(C)OC(OC2CC(C)(O)Cc3cc4c(c(O)c32)C(=O)c2c(O)cc3c(c2C4=O)OC2OC3(C)C(O)C(N(C)C)C2O)C(OC)C1(C)OC` (stereo not drawn) as the compound, how does the T/C (dose: 0.16 mg/kg/injection, schedule: Q01DX009 (ip), vehicle: other) read?
A: 92 % of control

Q: And the T/C (dose: 0.31 mg/kg/injection, schedule: Q01DX009 (ip), vehicle: other)?
A: 95 % of control and 102 % of control

Q: What about the T/C (dose: 0.62 mg/kg/injection, schedule: Q01DX009 (ip), vehicle: other) of the same compound?
A: 113 % of control

Q: What about the T/C (dose: 0.63 mg/kg/injection, schedule: Q01DX009 (ip), vehicle: other) of the same compound?
A: 116 % of control and 124 % of control and 97 % of control

Q: What about the T/C (dose: 5.0 mg/kg/injection, schedule: Q01DX009 (ip), vehicle: other) of the same compound?
A: 157 % of control and 175 % of control

Q: `CC(C)C(NC(=O)C(Cc1cnc[nH]1)NC(=O)OCc1ccccc1)C(=O)O` (stereo not drawn) (Cbz-His-Val-OH; configuration not given here) was tested. Which T/C (dose: 100.0 mg/kg/injection, schedule: Q01DX009 (ip), vehicle: Klucel (hydroxypropylcellulose) (HPC)) did it give?
A: 94 % of control

Q: And the T/C (dose: 200.0 mg/kg/injection, schedule: Q01DX009 (ip), vehicle: Klucel (hydroxypropylcellulose) (HPC))?
A: 102 % of control

Q: And the T/C (dose: 400.0 mg/kg/injection, schedule: Q01DX009 (ip), vehicle: Klucel (hydroxypropylcellulose) (HPC))?
A: 102 % of control

Q: How did the T/C (dose: 6.25 mg/kg/injection, schedule: Q01DX009 (ip), vehicle: saline) turn out when `NNC(=O)c1ccncc1` was run?
A: 112 % of control

Q: And the T/C (dose: 12.5 mg/kg/injection, schedule: Q01DX009 (ip), vehicle: saline)?
A: 99 % of control

Q: What about the T/C [1] of the same compound?
A: 99 % of control

Q: And the T/C [2]?
A: 105 % of control

Q: And the T/C (dose: 64.0 mg/kg/injection, schedule: Q01DX009 (ip), vehicle: saline)?
A: 100 % of control

Q: What about the T/C [3] of the same compound?
A: 112 % of control

Q: And the T/C (dose: 128.0 mg/kg/injection, schedule: Q01DX009 (ip), vehicle: saline)?
A: 99 % of control

Q: How did the T/C [5] turn out when `CCN(CC)c1ccc2[nH]c3c(C(N)=O)cc(=O)c(=O)c=3oc2c1` was run?
A: 96 % of control

Q: And the T/C [6]?
A: 112 % of control

Q: Which results are given for `CC1(C)CC1(Br)Br`?
A: T/C (dose: 6.25 mg/kg/injection, schedule: Q01DX009 (ip), vehicle: saline with Tween-80): 100 % of control; T/C [5]: 93 % of control; T/C [6]: 104 % of control; T/C [7]: 97 % of control; T/C (dose: 100.0 mg/kg/injection, schedule: Q01DX009 (ip), vehicle: saline with Tween-80): 100 % of control; T/C (dose: 200.0 mg/kg/injection, schedule: Q01DX009 (ip), vehicle: saline with Tween-80): 92 % of control
